Measurements taken from patent US11358969B2, “Indole AHR inhibitors and uses thereof” (Ikena Oncology, Inc., priority 2017, dated 2022).

Each molecule was assayed against T1, AHR (UniProt P35869) (assay: DRE-Luciferase Reporter Assay (Alternate Method) (Example 1B)). Conditions: cell line and AHR activating ligand not specified.
T1 construct: IC50
T1 sequence (P35869 1-848): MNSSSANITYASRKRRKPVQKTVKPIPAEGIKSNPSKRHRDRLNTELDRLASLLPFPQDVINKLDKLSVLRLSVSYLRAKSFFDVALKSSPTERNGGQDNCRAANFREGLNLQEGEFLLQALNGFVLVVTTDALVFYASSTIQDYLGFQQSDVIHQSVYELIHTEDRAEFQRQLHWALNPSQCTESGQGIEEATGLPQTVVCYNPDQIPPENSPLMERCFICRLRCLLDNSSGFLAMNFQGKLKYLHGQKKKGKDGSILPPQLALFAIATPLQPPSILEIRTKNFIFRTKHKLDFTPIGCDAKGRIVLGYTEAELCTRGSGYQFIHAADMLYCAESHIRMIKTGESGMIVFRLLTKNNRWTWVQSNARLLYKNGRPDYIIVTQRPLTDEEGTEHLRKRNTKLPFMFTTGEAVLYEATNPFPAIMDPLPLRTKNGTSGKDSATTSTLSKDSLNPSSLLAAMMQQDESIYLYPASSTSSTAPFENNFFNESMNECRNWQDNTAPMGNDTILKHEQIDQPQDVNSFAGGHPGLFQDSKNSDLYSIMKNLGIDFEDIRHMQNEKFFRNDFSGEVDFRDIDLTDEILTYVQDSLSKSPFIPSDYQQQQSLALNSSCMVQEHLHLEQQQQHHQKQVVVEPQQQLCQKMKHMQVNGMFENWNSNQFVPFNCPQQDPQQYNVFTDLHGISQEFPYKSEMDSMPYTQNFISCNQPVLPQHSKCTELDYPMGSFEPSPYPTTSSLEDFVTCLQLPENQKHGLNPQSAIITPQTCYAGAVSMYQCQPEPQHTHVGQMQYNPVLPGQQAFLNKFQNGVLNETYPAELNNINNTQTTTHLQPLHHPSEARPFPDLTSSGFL
Assay type: cell-based, murine or human
Experimental: AHR binds to Dioxin Responsive Elements (DRE) upstream of genes that it activates. One measure of AHR activity is activation of a reporter gene, such as luciferase, downstream of one or multiple DRE elements. Luciferase activity will reflect activation and inhibition of AHR in the cells expressing his reporter.
Murine Hepa1-6 or Hepa-1c1c7 or other murine cell line with a DRE-luciferase reporter either stably or transiently transfected were plated in media in plates (96-well, 384-well or other plates) and incubated overnight at 37° C. in a CO2 incubator or compound and agonist were added at the time of plating. Likewise, human HepG2 or other human cell line with a DRE-luciferase reporter either stably or transiently transfected were plated in media in plates (96-well, 384-well or other plates) and incubated overnight at 37° C. in a CO2 incubator or compound and agonist were added at the time of plating.
At the time that cells are plated or following incubation overnight, an AHR activating ligand, such as TCDD, kynurenine, ITE (2-(1H-indole-3-ylcarbonyl)-4-thiazolecarboxylic methyl ester), VAF347, BNF (beta-naphthoflavone), FICZ (6-formylindolo(3,2-b) carbazole or other AHR ligands, was added with or without AHR antagonist.
Cells were incubated for 4, 15 or 24 hours or another time point and then lysed for determination of luciferase activity as a read-out of the AHR activation or inhibition. Luciferase was measured with a commercial kit such as the Promega Luciferase kit or any kit or reagents that provide the luciferin substrate for measuring luciferase activity. The level of luciferase with only activating ligand added was the maximum signal while the luciferase with no ligand was the minimum signal. IC50 values were determined as the concentration which inhibits half of the luciferase activity.

IC50 | SMILES
< 500 nM | Cc1[nH]c2c(F)cccc2c1CCNc1nc(-c2cncc(F)c2)nc2c1ncn2C(C)C [I-71, N-[2-(7-Fluoro-2-methyl-1H-indol-3-yl)ethyl]-2-(5-fluoro-3-pyridyl)-9-isopropyl-purin-6-amine]
500 to 1000 nM | Cc1[nH]c2c(F)cc(F)cc2c1CCNc1cc(OC(C)C)nc(-c2cncc(F)c2)n1 [I-74, N-[2-(5,7-Difluoro-2-methyl-1H-indol-3-yl)ethyl]-2-(5-fluoro-3-pyridyl)-6-isopropoxy-pyrimidin-4-amine]
> 1500 nM | CC(C)c1cnn2c(N[C@H]3CCc4[nH]c5ccccc5c4C3)cc(-c3cncc(F)c3)nc12 [I-75b, (3S)—N-[5-(5-Fluoro-3-pyridyl)-3-isopropyl-pyrazolo[1,5-a]pyrimidin-7-yl]-2,3,4,9-tetrahydro-1H-carbazol-3-amine]
< 500 nM | Cc1[nH]c2ccccc2c1CCNc1nc(-c2cncc(F)c2)nc2c1ncn2C(C)C [I-79, 2-(5-Fluoro-3-pyridyl)-9-isopropyl-N-[2-(2-methyl-1H-indol-3-yl)ethyl]purin-6-amine]
500 to 1000 nM | CC(C)Oc1nc(NCCc2c[nH]c3ccccc23)cc(-c2cncc(F)c2)n1 [I-80, 6-(5-Fluoro-3-pyridyl)-N-[2-(1H-indol-3-yl)ethyl]-2-isopropoxy-pyrimidin-4-amine]
< 500 nM | Cc1nn2c(NCCc3c[nH]c4ccccc34)cc(-c3cncc(F)c3)nc2c1C(C)C [I-83, 5-(5-Fluoro-3-pyridyl)-N-[2-(1H-indol-3-yl)ethyl]-3-isopropyl-2-methyl-pyrazolo[1,5-a]pyrimidin-7-amine]
> 1500 nM | Cc1nn2c(NCCc3c(C)[nH]c4c(F)cc(F)cc34)cc(-c3cncc(F)c3)nc2c1C(C)C [I-84, N-[2-(5,7-Difluoro-2-methyl-1H-indol-3-yl)ethyl]-5-(5-fluoro-3-pyridyl)-3-isopropyl-2-methyl-pyrazolo[1,5-a]pyrimidin-7-amine]
500 to 1000 nM | Cc1[nH]c2c(F)cc(F)cc2c1CCNc1cc(-c2cncc(F)c2)nc2ccnn12 [I-85, N-(2-(5,7-Difluoro-2-methyl-1H-indol-3-yl)ethyl)-5-(5-fluoropyridin-3-yl)pyrazolo[1,5-a]pyrimidin-7-amine]
< 500 nM | Fc1cncc(-c2cc(NCCc3c[nH]c4ccccc34)n3ncc(C4CC4)c3n2)c1 [I-86, 3-Cyclopropyl-5-(5-fluoro-3-pyridyl)-N-[2-(1H-indol-3-yl)ethyl]pyrazolo[1,5-a]pyrimidin-7-amine]
< 500 nM | Cc1[nH]c2c(F)cc(F)cc2c1CCNc1cc(-c2cncc(F)c2)nc2c(C3CC3)cnn12 [I-87, 3-Cyclopropyl-N-(2-(5,7-difluoro-2-methyl-1H-indol-3-yl)ethyl)-5-(5-fluoropyridin-3-yl)pyrazolo[1,5-a]pyrimidin-7-amine]
500 to 1000 nM | CC(C)Oc1cc(NCCc2c[nH]c3c(F)cc(F)cc23)nc(-c2cncc(F)c2)n1 [I-88, N-[2-(5,7-Difluoro-1H-indol-3-yl)ethyl]-2-(5-fluoro-3-pyridyl)-6-isopropoxy-pyrimidin-4-amine]
< 500 nM | Cc1[nH]c2ccccc2c1CCNc1cc(-c2cncc(F)c2)nc2c(C(C)C)cnn12 [I-89, 5-(5-fluoro-3-pyridyl)-3-isopropyl-N-[2-(2-methyl-1H-indol-3-yl)ethyl]pyrazolo[1,5-a]pyrimidin-7-amine]
< 500 nM | Cc1[nH]c2c(F)cc(F)cc2c1CCNc1cc(-c2cncc(F)c2)nc2c(C(C)(C)C)cnn12 [I-91, 3-tert-Butyl-N-[2-(5,7-difluoro-2-methyl-1H-indol-3-yl)ethyl]-5-(5-fluoro-3-pyridyl)pyrazolo[1,5-a]pyrimidin-7-amine]
< 500 nM | CC(C)N(C)c1cc(NCCc2c[nH]c3ccccc23)nc(-c2cncc(F)c2)n1 [I-93, 2-(5-Fluoro-3-pyridyl)-N6-[2-(1H-indol-3-yl)ethyl]-N4-isopropyl-N4-methyl-pyrimidine-4,6-diamine]
> 1500 nM | CC(C)c1cnn2c(N[C@@H]3CCc4ccc(O)cc4C3)cc(-c3cncc(F)c3)nc12 [I-94a, (3R)-3-[[5-(5-fluoro-3-pyridyl)-3-isopropyl-pyrazolo[1,5-a]pyrimidin-7-yl]amino]tetralin-6-ol]
> 1500 nM | CC(C)c1cnn2c(C(=O)NCc3cccc(O)c3)cc(-c3cncc(F)c3)nc12 [I-95, 5-(5-Fluoro-3-pyridyl)-N-[(3-hydroxyphenyl)methyl]-3-isopropyl-pyrazolo[1,5-a]pyrimidine-7-carboxamide]
> 1500 nM | CC(C)c1cnn2c(N[C@H](C)Cc3ccc(O)cc3)cc(-c3cncc(F)c3)nc12 [I-97a, 4-[(2R)-2-[[5-(5-Fluoro-3-pyridyl)-3-isopropyl-pyrazolo[1,5-a]pyrimidin-7-yl]amino]propyl]phenol]
> 1500 nM | CC(C)c1cnn2c(N[C@@H](C)Cc3c[nH]c4ccccc34)cc(-c3cncc(F)c3)nc12 [I-98a, 5-(5-Fluoro-3-pyridyl)-N-[(1S)-2-(1H-indol-3-yl)-1-methyl-ethyl]-3-isopropyl-pyrazolo[1,5-a]pyrimidin-7-amine]
< 500 nM | CC(C)c1cnn2c(NCCc3c[nH]c4c(F)cc(F)cc34)cc(-c3cncc(F)c3)nc12 [I-99, N-[2-(5,7-Difluoro-1H-indol-3-yl)ethyl]-5-(5-fluoro-3-pyridyl)-3-isopropyl-pyrazolo[1,5-a]pyrimidin-7-amine]
> 1500 nM | CC(C)c1cnn2c(C(=O)NCc3ccc(O)cc3)cc(-c3cncc(F)c3)nc12 [I-100, 5-(5-Fluoro-3-pyridyl)-N-[(4-hydroxyphenyl)methyl]-3-isopropyl-pyrazolo[1,5-a]pyrimidine-7-carboxamide]
< 500 nM | Cc1cc(CCNc2cc(-c3cncc(F)c3)nc3c(C(C)C)cnn23)ccc1O [I-102, 4-[2-[[5-(5-Fluoro-3-pyridyl)-3-isopropyl-pyrazolo[1,5-a]pyrimidin-7-yl]amino]ethyl]-2-methyl-phenol]
500 to 1000 nM | CC(C)Oc1cc(NCCc2c[nH]c3cccnc23)nc(-c2cncc(F)c2)n1 [I-104, 2-(5-Fluoro-3-pyridyl)-6-isopropoxy-N-[2-(1H-pyrrolo[3,2-b]pyridin-3-yl)ethyl]pyrimidin-4-amine]
< 500 nM | CC(C)c1cnn2c(NCCc3ccc(O)cc3)cc(-c3cncc(F)c3)nc12 [I-108, 4-[2-[[5-(5-Fluoro-3-pyridyl)-3-isopropyl-pyrazolo[1,5-a]pyrimidin-7-yl]amino]ethyl]phenol]
500 to 1000 nM | CC(C)c1cnn2c(NCCc3c[nH]c4cccnc34)cc(-c3cncc(F)c3)nc12 [I-110, 5-(5-Fluoro-3-pyridyl)-3-isopropyl-N-[2-(1H-pyrrolo[3,2-b]pyridin-3-yl)ethyl]pyrazolo[1,5-a]pyrimidin-7-amine]
> 1500 nM | Fc1cncc(-c2ccnc(NCCc3c[nH]c4ccccc34)n2)c1 [I-120, 4-(5-Fluoro-3-pyridyl)-N-[2-(1H-indol-3-yl)ethyl]pyrimidin-2-amine]
> 1500 nM | CC(C)c1cnn2c(N[C@@H]3CCc4[nH]c5ccccc5c4C3)nc(-c3cccc(F)c3)nc12 [I-121, (3R)—N-[2-(3-Fluorophenyl)-8-isopropyl-pyrazolo[1,5-a][1,3,5]triazin-4-yl]-2,3,4,9-tetrahydro-1H-carbazol-3-amine]
> 1500 nM | CSc1nc(N[C@@H]2CCc3[nH]c4ccccc4c3C2)n2ncc(C(C)C)c2n1 [I-122, (3R)—N-(8-Isopropyl-2-methylsulfanyl-pyrazolo[1,5-a][1,3,5]triazin-4-yl)-2,3,4,9-tetrahydro-1H-carbazol-3-amine]
1000 to 1500 nM | Fc1cncc(-c2nc(N[C@@H]3CCc4[nH]c5ccccc5c4C3)n3ncc(C4CCCCC4)c3n2)c1 [I-123, (3R)—N-[8-Cyclohexyl-2-(5-fluoro-3-pyridyl)pyrazolo[1,5-a][1,3,5]triazin-4-yl]-2,3,4,9-tetrahydro-1H-carbazol-3-amine]
